What was measured:
[1] = tested on: TGF-β-induced fibrotic genes expression in mouse ear skin; experiment: TGF-β-induced fibrotic gene expression in mouse ear, topical application; type: in vivo; conditions: for expression of fibrosis-related genes (Col1a1, Col1a2, α-Sma) in mouse ear: topical cream daily, 1 h before TGF-β 500 ng intradermal x5, T-3833261 0.01-0.1%, HF 0.01%
Protocol: Standard chow diet and water were available ad libitum.
A vehicle without compounds was applied to control mice. […] Topical application of compound was continued for 7 days.
(§1) Total RNA was isolated from in vivo samples using ISOGEN II (Nippongene) according to the manufacturer's instructions. In vitro RNA samples were prepared as mentioned above. High Capacity cDNA Reverse Transcription Kit (Life Technologies, Carlsbad, CA, USA) was used for cDNA synthesis. Real-time quantitative RT-PCR reactions were performed as a TaqMan method on a ViiA 7 real-Time PCR System (Life Technologies), using TaqMan Fast Advanced Master Mix (Lifer Technologies) with specific primers on TaqMan Gene Expression Assays (Life Technologies) according to the manufacturer's manual. FAM-probed primers were used: COL1A1, Hs00164004_m1; α-SMA/ACTA2, Hs00426835_g1; fibroblast growth factor 2 (FGF2), Hs00266645_m1; Smad specific E3 ubiquitin protein ligase 2 (SMURF2), Hs00224203_m1; DDIT3, Hs00358796_g1; and glyceraldehyde 3-phosphate dehydrogenase (GAPDH), 4326317E for human in vitro cell assay. FAM-probed and TAMRA-quenched primers (Sigma-Aldrich Japan, Tokyo, Japan) were used: Col1a1, NM_007742; type I collagen alpha 2 (Col1a2), NM_007743; α-Sma/Acta2, NM_007392; and Gapdh, NM_008084 for mouse in vivo assay (S1 Table). The relative mRNA level of the target genes was calculated by the comparative threshold cycle (Ct) method using GAPDH (Gapdh) as an internal control for normalization. The fold change in the expression of each target gene was calculated by the following formula: relative quantification (RQ) = 2^-ΔΔCt.

[2] = tested on: differentiated human skin myofibroblast; experiment: reverse fibrosis: α-SMA protein in TGF-β-induced differentiated skin myofibroblasts (Protocol 2); type: cell-based; conditions: TGF-β 1 ng/mL 48 h, then compound 48 h without TGF-β
Protocol: Protocol 2: Cells were allowed to adhere overnight before being replaced with serum-free FBM for 24 h. Cells were then treated with TGF-β (1 ng/mL) for 48 h to induce differentiation to myofibroblast with expressing α-SMA protein. The medium was then removed, and the cells were subsequently treated with or without samples (1–300 nM) in serum-free FBM for an additional 48 h. Cell lysates were prepared with cell lysis buffer (Cell Signaling Technology, Beverly, MA, USA) and subjected to α-SMA ELISA system (Abnova, Taipei, Taiwan) and Pro-type I Collagen α1 (pro-COL1A1) SimpleStep ELISA Kit (Abcam, Cambridge, UK, USA) according to the manufacturer's protocol.

[3] = tested on: TGF-β-treated human skin fibroblast; experiment: α-SMA and pro-COL1A1 protein ELISA in TGF-β-treated skin fibroblasts (Protocol 1); type: cell-based; conditions: TGF-β 1 ng/mL, 24 h; for pro-COL1A1 protein expression / α-SMA protein expression: 1-300 nM, 0.5 h pre-treatment, ELISA
Protocol: Primary human skin fibroblasts (NHDF-Ad) were obtained from Lonza (Basel, Switzerland). Cells were cultured and maintained in growth medium: Fibroblast Basal Medium (FBM) containing human fibroblast growth factor-B, insulin, fetal bovine serum (FBS) and gentamicin/amphotericin-B (Lonza). Cells were maintained in a humidified incubator at 37°C with 5% CO2 and used for experiments between passages 5 to 8.
Protocol 1: Cells were allowed to adhere overnight before being replaced with serum-free FBM for 24 h. Serum-starved cells were first pretreated with samples in DMSO at concentrations between 1 and 300 nM for 30 min and then stimulated with 1 ng/mL recombinant human TGF-β (R&D Systems, Minneapolis, MN, USA) for 24 h.
Cell lysates were prepared with cell lysis buffer (Cell Signaling Technology, Beverly, MA, USA) and subjected to α-SMA ELISA system (Abnova, Taipei, Taiwan) and Pro-type I Collagen α1 (pro-COL1A1) SimpleStep ELISA Kit (Abcam, Cambridge, UK, USA) according to the manufacturer's protocol.

[4] = tested on: Smad3 and phosphorylated Smad3 in human skin fibroblasts; experiment: Smad3 activation in western blotting; type: cell-based; conditions: 24 h treatment, then TGF-β 1 ng/mL 30 min; tested at 30 and 300 nM; western blot
Protocol: Cells were allowed to adhere overnight before being replaced with serum-free FBM for 24 h. Serum-starved cells were first pretreated with samples in DMSO at 30 and 300 nM for 24 h and then stimulated with 1 ng/mL TGF-β for 30 min. Cell lysates were prepared with lysis buffer and cellular proteins (11 μg/well) were separated by sodium dodecyl sulfate-polyacrylamide gel electrophoresis (4–20% Criterion TGX Precast Gel; Bio-Rad, Ontario, CA, USA). Protein bands were then transferred to polyvinylidene fluoride membranes (Trans-Blot Turbo Midi, Bio-Rad). Following blocking, the membranes were incubated with primary antibodies targeted against phospho-Smad3 (Cell Signaling Technology), Smad3 (Cell Signaling Technology) and β-actin (Cell Signaling Technology) followed by horseradish peroxidase-conjugated secondary antibody (Cell Signaling Technology). ECL Prime Western Blotting Detection Reagent (GE Healthcare Bio-Sciences, Little Chalfont, England) and LAS-3000 image analyzer (Fuji-film, Tokyo, Japan) were used for detection. Western blot band intensities were calculated by densitometric analyses with National Institutes of Health image software, Image J. Representative pictures are shown with quantified densitometric data.

[5] = tested on: primary human skin fibroblast; experiment: mRNA expression of fibrosis-related genes by real-time quantitative RT-PCR; type: cell-based; conditions: 1-300 nM, TGF-β 1 ng/mL, 24 h
Protocol: Cells were allowed to adhere overnight before being replaced with serum-free FBM for 24 h. Serum-starved cells were first pretreated with samples in DMSO at concentrations between 1 and 300 nM for 30 min and then stimulated with 1 ng/mL TGF-β for 24 h. Then total RNA was collected from the cells by RNeasy 96 Kit (Qiagen, Valencia, CA, USA) and DNaseI (Qiagen) according to the manufacturer's protocol.
as §1

[6] = body weight and tolerability on topical application in mice; conditions: mouse; for Body weight day 0 / Body weight day 7: topical, mean ± SE (n = 4-8); for tolerability: dermal topical application
Protocol: The experimenters were blinded to the treatments given to the animals and to the biochemical and histological analyses and the data analyses. Eight-week-old C3H/He male mice (weighing 23~28 g, Japan SLC, Inc., Hamamatsu, Japan) were used for all the in vivo experiments. […] These animals were maintained on a 12/12 h light/dark cycle with constant temperature (23 ± 2°C) under specific pathogen-free conditions. Standard chow diet and water were available ad libitum.
After acclimatization for 1 weeks, animals were randomly divided according to body weight and treated for 3 to 5 consecutive days as follows. The ear and dorsal skin of mouse were intradermally injected with 20 μL (100 μL, dorsal skin) PBS or 500 ng TGF-β in PBS under anaesthesia with 3–4% sevoflurane. Injections were continued in this manner daily for 3 days (days 0, 1 and 2) or 5 days (days 0, 1, 2, 3 and 4). Treatment protocol included the daily topical application of T-3833261 or HF cream on the ear (40 μL/ear) 1 h before injections into the ear. A vehicle without compounds was applied to control mice. The topical material contained sorbitan sesquioleate (50 g), lanolin (50 g), liquid paraffin (250 g), propylene glycol (50 g), 90% lactic acid (1.5 g), T-3833261 (0.1, 0.3 and 1 g) or HF (0.1 g), and distilled water as the rest material. Topical application of compound was continued for 7 days. Mice were euthanized by cervical dislocation under sevoflurane anesthesia at 3 or 5 days after last TGF-β injection and the ear surrounding the TGF-β injection site was harvested with 8 μm biopsy punch under anesthesia.

SMILES	expression of fibrosis-related genes (Col1a1, Col1a2, α-Sma) in mouse ear [1]	concentration promoting the reduction of α-SMA protein in differentiated myofibroblasts [2] [nM]	concentration reducing α-SMA levels to that of non-stimulated controls [2] [nM]	pro-COL1A1 protein expression [3]	α-SMA protein expression [3]	concentration reducing α-SMA and pro-COL1A1 proteins below the basal level of non-stimulated cells [3] [nM]	concentration showing a decrease in TGF-β-induced accumulation of Smad3 [4] [nM]	concentration showing a decrease in phosphorylated Smad3 (p-Smad3) [4] [nM]	COL1A1 mRNA expression [5]	DDIT3 mRNA expression [5]	FGF2 mRNA expression [5]	SMURF2 mRNA expression [5]	α-SMA mRNA expression [5]	tolerability [6]	also measured
Cn1cc(-c2cc(F)cc(CNC(=O)c3nccc4nc(C5CCCC5)[nH]c34)c2)cn1 [T-3833261, 2-Cyclopentyl-N-(3-fluoro-5-(1-methyl-1H-pyrazol-4-yl)benzyl)-3H-imidazo[4,5-c]pyridine-4-carboxamide]	reduced expression of these fibrotic genes in a dose-dependent manner	100	300	suppressed pro-COL1A1 protein expression in a dose-dependent manner	suppressed α-SMA protein expression in a dose-dependent manner	≥ 100	30	300	suppressed expression of these fibrotic genes	dose-dependently increased DDIT3 expression	dose-dependently increased SMURF2 and FGF2 expressions	dose-dependently increased SMURF2 and FGF2 expressions	suppressed expression of these fibrotic genes	well-tolerated	activity on fibrotic gene expression relative to HF formulation ([1]; 0.1% formulation of T-3833261, topical, mouse ear): comparable activity to a 0.01% HF formulation; Body weight day 0 ([6]; 0.01% cream): 22.9 ± 0.8 g; Body weight day 7 ([6]; 0.01% cream): 23.8 ± 0.5 g; Body weight day 0 ([6]; 0.03% cream): 23.1 ± 0.6 g; Body weight day 7 ([6]; 0.03% cream): 23.4 ± 0.4 g; Body weight day 0 ([6]; 0.1% cream): 22.4 ± 0.4 g; Body weight day 7 ([6]; 0.1% cream): 22.2 ± 0.5 g; body weight of the mice after one week of continuous topical application ([6]; topical cream): did not change
O=C(CC1NCCCC1O)Cn1cnc2cc(Br)c(Cl)cc2c1=O (stereo not drawn) [HF, Halofuginone, reference compound]	prevented the skin fibrotic genes expression induced by TGF-β	100	300	suppressed pro-COL1A1 protein expression in a dose-dependent manner	suppressed α-SMA protein expression in a dose-dependent manner	≥ 100	300	300	reduced to near the level of non-stimulated control	dose-dependently increased DDIT3 expression	dose-dependently increased SMURF2 and FGF2 expressions	dose-dependently increased SMURF2 and FGF2 expressions	suppressed TGF-β-induced expression of α-SMA	well-tolerated	–

— article PMC5655428, “Discovery and pharmacological characterization of a new class of prolyl-tRNA synthetase inhibitor for anti-fibrosis therapy” (PLoS ONE, 2017)
